Test results taken from patent US20250197382A1, “KIF18A INHIBITOR” (WIGEN BIOMEDICINE TECHNOLOGY (SHANGHAI) CO., LTD., priority 2022, published 2025).

How the values were obtained:
HT-29 cells = assay: In vitro anti-proliferative activity against HT-29 cells (intracellular ATP content, 72 h); format: cell-based; settings: Homo sapiens, 72 h after dosing
Procedure: Biological Example 2. In Vitro Anti-Proliferative Activity of Compounds of the Present Invention Against HT-29 Cells
(§1) HT-29 cells were seeded on a 384-well plate at 3000 cells/well. After overnight adherence culture, DMSO or the compounds serially diluted in a 1:5 ratio from 5 μM were added. The viability was assessed 72 h after dosing by measuring the intracellular ATP content. The inhibition percentages of viable cells by the compounds were calculated by comparing with the DMSO group, and the IC so values were also calculated.

HCT116 cells = assay: In vitro anti-proliferative activity against HCT116 cells (intracellular ATP content, 72 h); format: cell-based; settings: Homo sapiens, HCT-116, 72 h after dosing
Procedure: Biological Example 3. In Vitro Anti-Proliferative Activity of Compounds of the Present Invention Against HCT116 Cells
as §1, with “HCT116” for “HT-29”, “IC50” for “IC so”

[1] = molecular target: Recombinant human KIF18A (1-467His-tagged) protein (Homo sapiens (Human), UniProt Q8NI77); assay: KIF18A enzyme assay (microtubule-stimulated ATPase activity, ADP-Glo); format: biochemical; settings: 30 nM KIF18A, ATP 75 μM, read-out: inhibitory activity against KIF18A IC50
Outline: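 Baculovirus-expressed human KIF18A (1-467, His-tagged; 30 nM) preincubated 15 min at room temperature with compound (22-point 2-fold series) in pH 7.5 Tris buffer containing 30 μg/mL pig microtubules and 1 μM paclitaxel.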

Recombinant human KIF18A (1-467His-tagged) protein, sequence (Q8NI77 1-467): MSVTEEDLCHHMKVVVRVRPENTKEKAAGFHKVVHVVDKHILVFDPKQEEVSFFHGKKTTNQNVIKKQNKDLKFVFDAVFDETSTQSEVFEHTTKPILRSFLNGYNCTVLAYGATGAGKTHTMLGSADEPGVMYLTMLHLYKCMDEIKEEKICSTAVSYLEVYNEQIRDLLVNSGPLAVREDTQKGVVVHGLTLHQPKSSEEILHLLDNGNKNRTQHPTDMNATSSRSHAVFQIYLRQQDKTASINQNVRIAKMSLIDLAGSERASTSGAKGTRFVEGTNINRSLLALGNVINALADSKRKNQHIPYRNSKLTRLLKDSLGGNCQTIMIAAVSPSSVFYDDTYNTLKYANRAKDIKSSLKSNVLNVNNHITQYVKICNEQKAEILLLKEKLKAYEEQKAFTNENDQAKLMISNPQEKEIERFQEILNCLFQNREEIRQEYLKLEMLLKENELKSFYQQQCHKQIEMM
Recombinant human KIF18A (1-467His-tagged) protein, sequence (P02550 whole entry partner): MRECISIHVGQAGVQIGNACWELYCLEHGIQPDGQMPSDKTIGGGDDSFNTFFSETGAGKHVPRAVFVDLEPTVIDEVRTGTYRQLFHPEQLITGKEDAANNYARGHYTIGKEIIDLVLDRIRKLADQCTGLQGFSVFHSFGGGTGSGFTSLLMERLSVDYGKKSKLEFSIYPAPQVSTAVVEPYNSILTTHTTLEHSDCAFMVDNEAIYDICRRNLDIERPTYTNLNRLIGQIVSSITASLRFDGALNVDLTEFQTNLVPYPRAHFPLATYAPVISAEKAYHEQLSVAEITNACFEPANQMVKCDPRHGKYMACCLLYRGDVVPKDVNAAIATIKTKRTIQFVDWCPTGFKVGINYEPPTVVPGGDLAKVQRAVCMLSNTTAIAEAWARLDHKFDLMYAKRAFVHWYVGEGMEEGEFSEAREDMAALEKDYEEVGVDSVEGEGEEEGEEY
Recombinant human KIF18A (1-467His-tagged) protein, sequence (P02554 whole entry partner): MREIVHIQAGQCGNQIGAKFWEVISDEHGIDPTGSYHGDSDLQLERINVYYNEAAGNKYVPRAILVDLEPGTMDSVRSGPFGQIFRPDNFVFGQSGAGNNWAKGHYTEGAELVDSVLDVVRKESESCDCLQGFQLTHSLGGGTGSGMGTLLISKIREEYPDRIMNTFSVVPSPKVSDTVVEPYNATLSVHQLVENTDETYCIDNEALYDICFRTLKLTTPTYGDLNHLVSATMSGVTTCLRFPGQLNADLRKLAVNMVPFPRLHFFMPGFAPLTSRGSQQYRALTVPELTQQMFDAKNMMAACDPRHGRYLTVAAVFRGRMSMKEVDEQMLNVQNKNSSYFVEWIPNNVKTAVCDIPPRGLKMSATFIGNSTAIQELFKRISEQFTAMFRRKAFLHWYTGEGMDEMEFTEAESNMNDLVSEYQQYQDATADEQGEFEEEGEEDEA

| Structure (SMILES) | IC50 (HT-29 cells) [nM] | IC50 (HCT116 cells) [nM] | IC50 [1] [nM] |
| --- | --- | --- | --- |
| O=C(Nc1cc2c(c(OC3CCC3)c1)OCC2)c1ccc(NS(=O)(=O)CCO)cc1N1CCC2(CC1)CC2 [Compound 7] | 73 | > 10000 | ≤ 100 |
| O=C(Nc1cc2c(c(N3CCC(F)(F)CC3)n1)OCC2)c1ccc(S(=O)(=O)NCCO)cc1N1CCC2(CC1)CC2 [Compound 81] | 51 | > 10000 | ≤ 100 |
| O=C(Nc1ccc(NS(=O)(=O)CCO)cc1N1CCC2(CC1)CC2)c1cc2c(c(N3CCC(F)(F)CC3)c1)OCC2 [Compound 33] | 52 | > 10000 | ≤ 100 |
| O=C(Nc1cc(N2CCC(F)(F)CC2)c2occc2c1)c1ccc(NS(=O)(=O)CCO)cc1N1CCC2(CC1)CC2 [Compound 129] | 40 | > 10000 | ≤ 100 |
| O=C(Nc1ccc(S(=O)(=O)NCCO)cc1N1CCC2(CC1)CC2)c1cc2c(c(N3CCC(F)(F)CC3)n1)OCC2 [Compound 113] | 81 | > 10000 | ≤ 100 |
| O=C(Nc1cc(N2CCC(F)(F)CC2)c2ncccc2c1)c1ccc(NS(=O)(=O)CCO)cc1N1CCC2(CC1)CC2 [Compound 530] | 36 | > 10000 | ≤ 100 |
| O=C(Nc1cc2cc[nH]c2c(N2CCC(F)(F)CC2)n1)c1ccc(NS(=O)(=O)CCO)cc1N1CCC2(CC1)CC2 [Compound 522] | 69 | 8190 | ≤ 100 |
| O=C(Nc1ccc(NS(=O)(=O)CCO)cc1N1CCC2(CC1)CC2)c1cc2c(c(N3CCC(F)(F)CC3)n1)OCC2 [Compound 97] | 57 | > 10000 | ≤ 100 |
| O=C(Nc1cc2c(c(OCCC(F)(F)F)n1)OCC2)c1ccc(NS(=O)(=O)CCO)cc1N1CCC2(CC1)CC2 [Compound 69] | 71 | > 10000 | ≤ 100 |
| O=C(Nc1cc2c(c(N3CCC(F)(F)CC3)c1)OCCC2)c1ccc(NS(=O)(=O)CCO)cc1N1CCC2(CC1)CC2 [Compound 539] | 43 | > 10000 | ≤ 100 |
| C[C@@H]1CN(c2nc(NC(=O)c3ccc(NS(=O)(=O)CCO)cc3N3CCC4(CC3)CC4)cc3c2OCC3)CCO1 [Compound 66] | 85 | > 10000 | ≤ 100 |
| O=C(Nc1cc(N2CCC(F)(F)CC2)c2ocnc2c1)c1ccc(NS(=O)(=O)CCO)cc1N1CCC2(CC1)CC2 [Compound 513] | 71 | > 10000 | ≤ 100 |
| O=C(Nc1cc2c(c(N3CC(F)(F)C3)n1)OCC2)c1ccc(NS(=O)(=O)CCO)cc1N1CCC2(CC1)CC2 [Compound 68] | 51 | > 10000 | ≤ 100 |
| O=C(Nc1ccc(S(=O)(=O)NCCO)cc1N1CCC2(CC1)CC2)c1cc2c(c(N3CCC(F)(F)CC3)c1)OCC2 [Compound 49] | 61 | > 10000 | ≤ 100 |
| O=C(Nc1cc2cccnc2c(N2CCC(F)(F)CC2)n1)c1ccc(NS(=O)(=O)CCO)cc1N1CCC2(CC1)CC2 [Compound 583] | 38 | > 10000 | – |
| Cc1cc(NC(=O)c2ccc(NS(=O)(=O)CCO)cc2N2CCC3(CC2)CC3)nc(N2CCC(F)(F)CC2)n1 [AMG650, reference compound] | 89 | > 10000 | – |
| O=C(Nc1cc2c(c(N3CCC(F)(F)CC3)n1)OCC2)c1ccc(NS(=O)(=O)CCO)cc1N1CCC2(CC1)CC2 [Compound 65] | 8 | > 10000 | ≤ 100 |
| O=C(Nc1ccc(NS(=O)(=O)CCO)cc1N1CCC2(CC1)CC2)c1cc2c(c(OCCC(F)(F)F)c1)OCC2 [Compound 5] | 88 | > 10000 | – |
| O=C(Nc1cc2c(c(N3CCC(F)(F)CC3)c1)OCC2)c1ccc(NS(=O)(=O)CCO)cc1N1CCC2(CC1)CC2 [Compound 1] | 9 | > 10000 | ≤ 100 |
| O=C(Nc1cc2c(c(OC3CCC3)n1)OCC2)c1ccc(NS(=O)(=O)CCO)cc1N1CCC2(CC1)CC2 [Compound 71] | 56 | > 10000 | ≤ 100 |
| O=C(Nc1cc2c(c(N3CC(F)(F)C3)c1)OCC2)c1ccc(NS(=O)(=O)CCO)cc1N1CCC2(CC1)CC2 [Compound 4] | 63 | > 10000 | ≤ 100 |
